Results from US9072293B2, “Cyclopropenes and method for applying cyclopropenes to agricultural products or crops” (Erum Biotechnologies Inc., priority 2010, dated 2015).
Where “and” joins values, the source holds several entries; their conditions need not be identical. Identical values can stand only once.

How the values were obtained:
[1] = 1,000 ppm (v/v) or less concentration, room temperature; cited from earlier work
[2] = Relative chemical stability of cyclopropenes measured by 1H-NMR; assay type: physicochemical
Procedure, shortened: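 Compounds in CDCl3 NMR tubes stored at −20° C. or room temperature and followed by 1H-NMR. Integrals of characteristic 1-alkylcyclopropene peaks (4–6.5 ppm, 1H; 0.8–0.9 ppm, 2H) compared against 1,1,3,3-tetramethylurea internal standard (2.80 ppm); stability expressed relative to chain-length-1 analogue.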

tomato [3] = assay: Experimental Example 1: Efficacy test on tomato using emulsion (reddening grade); assay type: in vivo; details: individual tomatoes n=4
tomato [4] = assay: Experimental Example 2: Efficacy test on tomato using oil based formulation (reddening grade); assay type: in vivo; details: 1.0 mM oil-based formulation, individual tomatoes n=4
Procedure, shortened: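 Tomatoes (n=4 per group) sprayed to surface saturation with 1.0 mM oil-based (xylene/hexane) cyclopropene formulations, versus untreated and solvent controls. Kept 3 days at 25–30 °C; ripening scored 0–5 by area of red coloration.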

chemical stability (in words) [2]	Stability (relative chemical stability, based on cyclopropenes having a chain length of 1) ([2]; 1H-NMR, CDCl3, stored at −20° C. or room temperature, relative to chain length 1)	Structure (SMILES)	half life [1]	reddening level (grade 0 to 5) (tomato [3]; 100 μM, Day 0, room temperature (25-30° C.))	reddening level (grade 0 to 5) (tomato [3]; 100 μM, Day 1, room temperature (25-30° C.))	reddening level (grade 0 to 5) (tomato [3]; 100 μM, Day 2, room temperature (25-30° C.))	reddening level (grade 0 to 5) (tomato [3]; 100 μM, Day 3, room temperature (25-30° C.))	reddening level (grade 0 to 5) (tomato [3]; 1.0 mM, Day 0, room temperature (25-30° C.))	reddening level (grade 0 to 5) (tomato [3]; 1.0 mM, Day 1, room temperature (25-30° C.))	reddening level (grade 0 to 5) (tomato [3]; 1.0 mM, Day 2, room temperature (25-30° C.))	reddening level (grade 0 to 5) (tomato [3]; 1.0 mM, Day 3, room temperature (25-30° C.))	Tomato results: reddening level (grade 0 to 5) (tomato [4]; Day 0, room temperature (25-30° C.))	Tomato results: reddening level (grade 0 to 5) (tomato [4]; Day 1, room temperature (25-30° C.))	Tomato results: reddening level (grade 0 to 5) (tomato [4]; Day 2, room temperature (25-30° C.))	Tomato results: reddening level (grade 0 to 5) (tomato [4]; Day 3, room temperature (25-30° C.))
		CC1=CC1 [1-methylcyclopropene]	≥ 240 h												
much more stable	>>10	C1=C(CCCCCc2ccccc2)C1 [(5-Phenylpentyl), 1-(5-phenylpentyl)cyclopropene]		0 (an area in which the surface of tomato was colored in pink was 10% or less) (2×) and 1 (an area in which the surface of tomato was completely colored in red was 10 to 40%) and 2 (an area in which the surface of tomato was completely colored in red was 40 to 70%)	0 (an area in which the surface of tomato was colored in pink was 10% or less) (2×) and 2 (an area in which the surface of tomato was completely colored in red was 40 to 70%) (2×)	0 (an area in which the surface of tomato was colored in pink was 10% or less) and 1 (an area in which the surface of tomato was completely colored in red was 10 to 40%) and 3 (an area in which the surface of tomato was completely colored in red was 70% or more and the bottom area remained green) (2×)	1 (an area in which the surface of tomato was completely colored in red was 10 to 40%) and 2 (an area in which the surface of tomato was completely colored in red was 40 to 70%) and 3 (an area in which the surface of tomato was completely colored in red was 70% or more and the bottom area remained green) and 4	0 (an area in which the surface of tomato was colored in pink was 10% or less) (2×) and 1 (an area in which the surface of tomato was completely colored in red was 10 to 40%) and 2 (an area in which the surface of tomato was completely colored in red was 40 to 70%)	0 (an area in which the surface of tomato was colored in pink was 10% or less) (2×) and 1 (an area in which the surface of tomato was completely colored in red was 10 to 40%) and 2 (an area in which the surface of tomato was completely colored in red was 40 to 70%)	0 (an area in which the surface of tomato was colored in pink was 10% or less) (2×) and 1 (an area in which the surface of tomato was completely colored in red was 10 to 40%) and 2 (an area in which the surface of tomato was completely colored in red was 40 to 70%)	0 (an area in which the surface of tomato was colored in pink was 10% or less) and 1 (an area in which the surface of tomato was completely colored in red was 10 to 40%) and 2 (an area in which the surface of tomato was completely colored in red was 40 to 70%) and 3 (an area in which the surface of tomato was completely colored in red was 70% or more and the bottom area remained green)	0 (an area in which the surface of tomato was colored in pink was 10% or less) (2×) and 1 (an area in which the surface of tomato was completely colored in red was 10 to 40%) and 2 (an area in which the surface of tomato was completely colored in red was 40 to 70%)	0 (an area in which the surface of tomato was colored in pink was 10% or less) (2×) and 1 (an area in which the surface of tomato was completely colored in red was 10 to 40%) and 2 (an area in which the surface of tomato was completely colored in red was 40 to 70%)	0 (an area in which the surface of tomato was colored in pink was 10% or less) and 1 (an area in which the surface of tomato was completely colored in red was 10 to 40%) and 2 (an area in which the surface of tomato was completely colored in red was 40 to 70%) and 3 (an area in which the surface of tomato was completely colored in red was 70% or more and the bottom area remained green)	1 (an area in which the surface of tomato was completely colored in red was 10 to 40%) (2×) and 3 (an area in which the surface of tomato was completely colored in red was 70% or more and the bottom area remained green) and 4
